Results as given in ChEMBL document CHEMBL5038586, “Thiazolidinedione "Magic Bullets" Simultaneously Targeting PPARγ and HDACs: Design, Synthesis, and Investigations of their In Vitro and In Vivo Antitumor Effects” (J Med Chem, 2021).
Calls of active or inactive are those of the source. The calls are words filed in the database; no cut-off is given here.

Columns and labels:
Histone deacetylase 4 [1] = biological target: T1, Histone deacetylase 4 (Homo sapiens, UniProt P56524); test: Inhibition of recombinant human HDAC4 using Boc-Lys (trifluoroacetyl)-AMC as substrate ay 35 uM preincubated for 1 hr followed by substrate addition and measured after 1 hr by micro plate reader analysis
[2] = biological target: T2, Histone deacetylase 8 (Homo sapiens) (UniProt Q9BY41); test: Inhibition of recombinant human HDAC8 using Boc-Lys (trifluoroacetyl)-AMC as substrate ay 35 uM preincubated for 1 hr followed by substrate addition and measured after 1 hr by micro plate reader analysis
T2 sequence (whole entry): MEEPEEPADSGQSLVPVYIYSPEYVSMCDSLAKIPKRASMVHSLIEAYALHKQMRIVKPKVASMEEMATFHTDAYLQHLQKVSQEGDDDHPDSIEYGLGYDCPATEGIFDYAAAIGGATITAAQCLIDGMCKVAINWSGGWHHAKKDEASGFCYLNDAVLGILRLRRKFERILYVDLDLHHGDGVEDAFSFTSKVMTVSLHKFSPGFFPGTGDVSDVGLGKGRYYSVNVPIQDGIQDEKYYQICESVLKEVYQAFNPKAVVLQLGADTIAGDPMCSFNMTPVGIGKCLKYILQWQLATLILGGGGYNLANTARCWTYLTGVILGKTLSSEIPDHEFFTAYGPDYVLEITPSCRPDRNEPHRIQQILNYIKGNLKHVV

Histone deacetylase 8 = biological target: T3, Histone deacetylase 8 (Homo sapiens, UniProt Q9BY41); test: Inhibition of recombinant human HDAC8 using Boc-Lys (trifluoroacetyl)-AMC as substrate preincubated for 1 hr followed by substrate addition and measured after 1 hr by micro plate reader analysis
T3 sequence (Q9BY41 whole entry): T2 sequence (whole entry)

Histone deacetylase 4 [3] = biological target: T1, Histone deacetylase 4; test: Inhibition of recombinant human HDAC4 using Boc-Lys (trifluoroacetyl)-AMC as substrate preincubated for 1 hr followed by substrate addition and measured after 1 hr by micro plate reader analysis
[4] = Selectivity index, ratio of CC50 for human HS-27 cells to CC50 for human HeLa cells; type: functional
Ramos [5] = test: Cytotoxicity against human Ramos cells assessed as cell death incubated for 20 hrs measured by DNS assay; type: functional
MDA-MB-231 [6] = test: Cytotoxicity against human MDA-MB-231 cells assessed as cell death incubated at 10 uM for 20 hrs measured by DNS assay; type: functional
[7] = Selectivity index, ratio of CC50 for human HS-27 cells to CC50 for human Ramos cells; type: functional
HS27 [8] = test: Cytotoxicity against human HS-27 cells assessed as cell death incubated at 10 uM for 20 hrs measured by DNS assay; type: toxicity, cell-based; conditions: hs27, 20 h
HeLa [9] = test: Cytotoxicity against human HeLa cells assessed as cell death incubated for 20 hrs measured by DNS assay; type: functional
Ramos [10] = test: Cytotoxicity against human Ramos cells assessed as cell death incubated at 10 uM for 20 hrs measured by DNS assay; type: functional
SH-SY5Y [11] = test: Cytotoxicity against human SH-SY5Y cells assessed as cell death incubated at 10 uM for 20 hrs measured by DNS assay; type: functional
CCRF-CEM [12] = test: Cytotoxicity against human CEM cells assessed as cell death incubated at 10 uM for 20 hrs measured by DNS assay; type: functional
[13] = Selectivity index, ratio of CC50 for human HS-27 cells to CC50 for human CEM cells; type: functional
CCRF-CEM [14] = test: Cytotoxicity against human CEM cells assessed as cell death incubated for 20 hrs measured by DNS assay; type: functional
MDA-MB-231 [15] = test: Cytotoxicity against human MDA-MB-231 cells assessed as cell death incubated for 20 hrs measured by DNS assay; type: functional
[16] = Selectivity index, ratio of CC50 for human HS-27 cells to CC50 for human MDA-MB-231 cells; type: functional
HL-60 = test: Cytotoxicity against human HL-60 cells assessed as cell death incubated at 10 uM for 20 hrs measured by DNS assay; type: functional
[17] = Toxicity in SCID mouse xenografted with human CEM cells assessed as effect on body weight at 20 mg/kg, ip; type: organism-based, CCRF-CEM; conditions: in vivo
HeLa [18] = test: Cytotoxicity against human HeLa cells assessed as cell death incubated at 10 uM for 20 hrs measured by DNS assay; type: functional
CCRF-CEM [19] = test: Cytotoxicity against human CEM cells assessed as cell death incubated at 50 uM for 20 hrs measured by DNS assay; type: functional
[20] = Selectivity index, ratio of CC50 for human HS-27 cells to CC50 for human SH-SY5Y cells; type: functional
SH-SY5Y [21] = test: Cytotoxicity against human SH-SY5Y cells assessed as cell death incubated for 20 hrs measured by DNS assay; type: functional
HS27 [22] = test: Cytotoxicity against human HS-27 cells assessed as cell death incubated for 20 hrs measured by DNS assay; type: toxicity, cell-based; conditions: hs27, 20 h
[23] = Toxicity in SCID mouse xenografted with human CEM cells assessed as behavioral changes at 50 mg/kg, ip; type: organism-based, CCRF-CEM; conditions: in vivo
[24] = Toxicity in SCID mouse xenografted with human CEM cells assessed as effect on body weight at 50 mg/kg, ip; type: organism-based, CCRF-CEM; conditions: in vivo

T1 sequence (P56524 whole entry): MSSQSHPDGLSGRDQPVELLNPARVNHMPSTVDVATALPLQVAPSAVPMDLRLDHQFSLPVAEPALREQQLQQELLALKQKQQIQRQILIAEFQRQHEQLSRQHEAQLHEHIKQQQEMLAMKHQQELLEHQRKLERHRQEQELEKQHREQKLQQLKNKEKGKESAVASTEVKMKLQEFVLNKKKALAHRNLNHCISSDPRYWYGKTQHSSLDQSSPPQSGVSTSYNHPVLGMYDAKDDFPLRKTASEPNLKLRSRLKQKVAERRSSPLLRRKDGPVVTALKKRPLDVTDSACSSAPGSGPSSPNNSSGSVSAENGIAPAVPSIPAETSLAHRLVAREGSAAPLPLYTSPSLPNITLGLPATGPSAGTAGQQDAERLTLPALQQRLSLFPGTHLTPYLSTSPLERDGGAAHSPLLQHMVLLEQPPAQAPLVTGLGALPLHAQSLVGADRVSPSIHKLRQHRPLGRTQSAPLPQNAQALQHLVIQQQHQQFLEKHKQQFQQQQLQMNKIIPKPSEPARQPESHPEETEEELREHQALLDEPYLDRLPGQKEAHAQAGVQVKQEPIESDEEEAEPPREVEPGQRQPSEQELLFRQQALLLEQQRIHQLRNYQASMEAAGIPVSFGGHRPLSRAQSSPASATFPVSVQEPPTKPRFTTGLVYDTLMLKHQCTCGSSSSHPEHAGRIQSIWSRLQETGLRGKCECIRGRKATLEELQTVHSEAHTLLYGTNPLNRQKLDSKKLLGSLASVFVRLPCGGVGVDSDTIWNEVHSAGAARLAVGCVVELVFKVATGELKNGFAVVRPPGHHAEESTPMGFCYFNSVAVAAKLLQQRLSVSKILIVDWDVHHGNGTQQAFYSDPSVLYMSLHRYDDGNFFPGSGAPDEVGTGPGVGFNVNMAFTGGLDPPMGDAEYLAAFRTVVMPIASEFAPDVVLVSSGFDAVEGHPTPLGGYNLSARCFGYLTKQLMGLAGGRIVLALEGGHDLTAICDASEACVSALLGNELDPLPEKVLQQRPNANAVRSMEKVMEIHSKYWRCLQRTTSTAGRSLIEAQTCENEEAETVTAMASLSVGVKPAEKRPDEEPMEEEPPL

Compound	inhibition (Histone deacetylase 4 [1])	inhibition [2]	IC50 (Histone deacetylase 8)	IC50 (Histone deacetylase 4 [3])	further results
COc1ccc(NC(=O)COc2ccc3cc(/C=C4/SC(=O)NC4=O)ccc3c2)cc1	Active	Active	> 50 µM	4.7 µM	–
COc1cccc(NC(=O)COc2ccc3cc(/C=C4/SC(=O)NC4=O)ccc3c2)c1	Active	Active	7.6 µM	1.6 µM	Selectivity Index [4]: >10; CC50 (Ramos [5]): 9.3 µM; Activity (MDA-MB-231 [6]): >40%; Selectivity Index [7]: >10; Activity (HS27 [8]): 24.69%; CC50 (HeLa [9]): 10.4 µM; Activity (Ramos [10]): >40%; Activity (SH-SY5Y [11]): 0%; Activity (CCRF-CEM [12]): >40%; Selectivity Index [13]: >10; CC50 (CCRF-CEM [14]): 10.7 µM; CC50 (MDA-MB-231 [15]): 9.8 µM; Selectivity Index [16]: >10; Activity (HL-60): 0%
Cc1cc(NC(=O)COc2ccc3cc(/C=C4/SC(=O)NC4=O)ccc3c2)no1	Active	Active	> 50 µM	1.7 µM	–
COc1cccc2c1C(=O)c1c(O)c3c(c(O)c1C2=O)C[C@@](O)(C(=O)CO)C[C@@H]3O[C@H]1C[C@H](N)[C@H](O)[C@H](C)O1 [DOXORUBICIN]	–	–	–	–	Activity [17]: Non-Toxic
O=C(COc1ccc2cc(/C=C3/SC(=O)NC3=O)ccc2c1)Nc1ccc([N+](=O)[O-])cc1	–	–	4 µM	1.7 µM	CC50 (MDA-MB-231 [15]): 55.8 µM
O=C(COc1ccc2cc(/C=C3/SC(=O)NC3=O)ccc2c1)Nc1cc(Cl)cc(C(F)(F)F)c1	Active	Active	> 50 µM	4 µM	–
Cc1cccc(NC(=O)COc2ccc3cc(/C=C4/SC(=O)NC4=O)ccc3c2)n1	Active	Active	7.5 µM	1.1 µM	–
CCOc1ccc2nc(NC(=O)COc3ccc4cc(/C=C5/SC(=O)NC5=O)ccc4c3)sc2c1	Active	Active	17 µM	3.6 µM	–
CCc1ccc(CCOc2ccc(CC3SC(=O)NC3=O)cc2)nc1 (configuration not stated) [PIOGLITAZONE]	–	–	–	–	Activity (HeLa [18]): 0%; Activity (CCRF-CEM [19]): 0%
O=C(COc1ccc2cc(/C=C3/SC(=O)NC3=O)ccc2c1)Nc1cccc(C(F)(F)F)c1	Active	Active	> 50 µM	2.5 µM	Activity (HeLa [18]): 39.09%; CC50 (Ramos [5]): 6.2 µM; Activity (MDA-MB-231 [6]): 5.96%; Selectivity Index [7]: >10; Activity (Ramos [10]): >40%; Activity (SH-SY5Y [11]): 0%; Activity (CCRF-CEM [12]): 25.87%; Activity (HL-60): 19.55%
O=C(COc1ccc2cc(/C=C3/SC(=O)NC3=O)ccc2c1)Nc1cccc(F)n1	Active	Active	7.2 µM	0.84 µM	–
O=C(CN1C(=O)S/C(=C/c2ccccn2)C1=O)Nc1nc2ccccc2s1	–	–	9.3 µM	–	–
O=C(COc1ccc2cc(/C=C3/SC(=O)NC3=O)ccc2c1)Nc1ccc(Br)cc1	–	–	16 µM	2.9 µM	CC50 (HeLa [9]): 10.1 µM
O=C(COc1ccc2cc(/C=C3/SC(=O)NC3=O)ccc2c1)Nc1ccc(Cl)c(Cl)c1	Active	Active	> 50 µM	5.5 µM	–
O=C(COc1ccc2cc(/C=C3/SC(=O)NC3=O)ccc2c1)Nc1cccc(Cl)c1	Active	Active	> 50 µM	3.8 µM	Activity (HeLa [18]): 29.68%; CC50 (Ramos [5]): 9.1 µM; Activity (MDA-MB-231 [6]): 2.84%; Selectivity Index [7]: >10; Activity (HS27 [8]): 22.56%; Activity (Ramos [10]): >40%; Activity (SH-SY5Y [11]): 10.79%; Activity (CCRF-CEM [12]): >40%; Selectivity Index [13]: >10; CC50 (CCRF-CEM [14]): 10.6 µM; Activity (HL-60): 27.58%
O=C(COc1ccc2cc(/C=C3/SC(=O)NC3=O)ccc2c1)Nc1ccccc1Oc1ccccc1	Active	Active	> 50 µM	5.2 µM	Selectivity Index [4]: >10; CC50 (Ramos [5]): 10 µM; Activity (MDA-MB-231 [6]): >40%; Selectivity Index [7]: >10; CC50 (HeLa [9]): 10.2 µM; Activity (Ramos [10]): >40%; Activity (SH-SY5Y [11]): >40%; Selectivity Index [20]: >10; Activity (CCRF-CEM [12]): 40.24%; CC50 (MDA-MB-231 [15]): 10.3 µM; Selectivity Index [16]: >10; CC50 (SH-SY5Y [21]): 52.3 µM; Activity (HL-60): 0%
O=C(COc1ccc2cc(/C=C3/SC(=O)NC3=O)ccc2c1)Nc1ccccc1	Active	Active	4.5 µM	2.1 µM	–
Cc1ccc(NC(=O)COc2ccc3cc(/C=C4/SC(=O)NC4=O)ccc3c2)cc1Cl	Active	Active	> 50 µM	1.1 µM	–
O=C(COc1ccc2cc(/C=C3/SC(=O)NC3=O)ccc2c1)Nc1ccc(F)cc1F	Active	Active	> 50 µM	3.9 µM	–
Cc1cc(Br)ccc1NC(=O)COc1ccc2cc(/C=C3/SC(=O)NC3=O)ccc2c1	–	–	7.4 µM	0.55 µM	CC50 (HeLa [9]): 9.9 µM; CC50 (SH-SY5Y [21]): 91.1 µM
O=C(COc1ccc2cc(/C=C3/SC(=O)NC3=O)ccc2c1)Nc1ccc(F)cc1	Active	Active	6.6 µM	1.6 µM	–
O=C(COc1ccc2cc(/C=C3/SC(=O)NC3=O)ccc2c1)Nc1ccccn1	Active	Active	> 50 µM	17 µM	–
O=C(COc1ccc2cc(/C=C3/SC(=O)NC3=O)ccc2c1)Nc1c(F)cc(F)cc1Br	–	–	> 50 µM	1.1 µM	CC50 (HS27 [22]): 39.9 µM; CC50 (Ramos [5]): 9.6 µM; CC50 (HeLa [9]): 10.4 µM; CC50 (CCRF-CEM [14]): 9.6 µM; CC50 (MDA-MB-231 [15]): 9.8 µM; CC50 (SH-SY5Y [21]): 21.8 µM
Cc1ccc(NC(=O)COc2ccc3cc(/C=C4/SC(=O)NC4=O)ccc3c2)cc1	–	–	9 µM	1.7 µM	CC50 (HS27 [22]): 40.2 µM; CC50 (Ramos [5]): 7 µM; Activity [23]: Non-Toxic; Activity [24]: Non-Toxic; CC50 (HeLa [9]): 10.3 µM; CC50 (CCRF-CEM [14]): 2.8 µM; CC50 (SH-SY5Y [21]): 49.5 µM
O=C(COc1ccc2cc(/C=C3/SC(=O)NC3=O)ccc2c1)Nc1ccc(Br)c(Br)c1	Active	Active	> 50 µM	4.9 µM	–
Cc1cccc2sc(NC(=O)COc3ccc4cc(/C=C5/SC(=O)NC5=O)ccc4c3)nc12	Active	Active	5.8 µM	1.2 µM	–
O=C(COc1ccc2cc(/C=C3/SC(=O)NC3=O)ccc2c1)Nc1ccc(Br)cc1F	–	–	> 50 µM	1.9 µM	CC50 (HS27 [22]): 57 µM; CC50 (CCRF-CEM [14]): 40.9 µM; CC50 (SH-SY5Y [21]): 16 µM
O=C(COc1ccc2ccccc2c1/C=C1\SC(=O)NC1=O)Nc1ccc([N+](=O)[O-])cc1	–	–	2.3 µM	15 µM	–
O=C(COc1ccc2cc(/C=C3/SC(=O)NC3=O)ccc2c1)Nc1nc2ccccc2s1	Active	Active	2.7 µM	0.42 µM	–
O=C(CCCCCCC(=O)Nc1ccccc1)NO [VORINOSTAT]	–	–	–	–	CC50 (HeLa [9]): 2.8 µM; CC50 (CCRF-CEM [14]): 2.5 µM
